Laboratory results published in patent publication US9999690B2, “Labeled compounds and methods of imaging, diagnosing cartilage disorders and diseases, and monitoring cartilage health using labeled and unlabeled compounds” (Perosphere Inc., priority 2013, dated 2018).
“And” between values parts separate entries of the source, which are not always exact repeats. Identical values can stand only once.

What was measured:
[1] = Rat mass balance recovery (urine, feces, cage rinses and wipes, carcasses, expired air), Groups 2 and 3; type: in vivo; parameters: Mass Balance Recovery, Feces Subtotal / Mass Balance Recovery, Expired Air, Trap 1 / Mass Balance Recovery, Expired Air, Trap 1 Subtotal: unit not given here; conditions: for Mass Balance Recovery, Feces / Mass Balance Recovery, Cage Rinse / Mass Balance Recovery, Dose Site Wipe / Mass Balance Recovery, Urine / Mass Balance Recovery, Cage Wipe / Mass Balance Recovery, Carcass / Mass Balance Recovery, Feces Subtotal / Mass Balance Recovery, Cage Rinse Subtotal / Mass Balance Recovery, Urine Subtotal: rat Group 2, IV dose; for Mass Balance Recovery, Dose Site Wipe: 0 hrs; for Mass Balance Recovery, Cage Wipe / Mass Balance Recovery, Carcass: 96 hrs; for Mass Balance Recovery, Expired Air, Trap 1 / Mass Balance Recovery, Expired Air, Trap 1 Subtotal: rat Group 3, IV dose; for Mass Balance Recovery, TOTAL: rat Groups 2 and 3, IV dose
Description: (§1) A study was conducted to determine the pharmacokinetics, rates and routes of excretion with mass baseline and tissue distribution of radioactivity, after a single intravenous dose administration of formula XIII (also referred to as [^14C]DAP) was administered to the rats by tail vein intravenous injection at a
(§2) The study was conducted on 19 male rats divided into 4 groups. The first group of 6 rats was used for blood collection (Group 1); the second group of 4 rats was used for urine, feces, cage rinses and wipes and carcasses collection (Group 2); the third group of 4 rats was used for expired air collection (Group 3); the fourth group of 5 rats was used for terminal blood/serum and tissue distribution by Quantitative Whole-Body Autoradiography (QWBA) (Group 4).

[2] = Rat blood PK samples after intravenous injection, Group 1; type: in vivo; conditions: rat Group 1, IV injection, in ng-eq/g
Description: as §1, §2

[3] = 24-48 hrs, Mean, in % (unit assumed)
[4] = 24-48 hrs, individual rats 201M-204M, in % (unit assumed)
[5] = 48-72 hrs, Mean, in % (unit assumed)
[6] = 48-72 hrs, individual rats 201M-204M, in % (unit assumed)
[7] = 72-96 hrs, Mean, in % (unit assumed)
[8] = 72-96 hrs, individual rats 201M-204M, in % (unit assumed)
[9] = individual rats 201M-204M, in % (unit assumed)

For `[2H]C1([2H])N(CCCNC(=O)[C@@H](N)CCCNC(=N)N)C([2H])([2H])C([2H])([2H])N(CCCNC(=O)[C@@H](N)CCCNC(=N)N)C1([2H])[2H]` [formula XIII], the “Mass Balance Recovery, Feces” value ([1]; 0-8 hrs, Mean, in % (unit assumed)) was 0.02, the “Mass Balance Recovery, Feces” value ([1]; 0-8 hrs, individual rats 201M-204M) was 0.00 and 0.04 (2×) and 0.01 and the “Mass Balance Recovery, Cage Rinse” value ([1]; 0-24 hrs, Mean, in % (unit assumed)) was 1.74. The “Mass Balance Recovery, Cage Rinse” value ([1]; 0-24 hrs, individual rats 201M-204M, in % (unit assumed)) was 2.48 and 0.91 and 1.94 and 1.63, the Mass Balance Recovery, Dose Site Wipe ([1]; Mean) was 0.01% and the Mass Balance Recovery, Dose Site Wipe ([1]; individual rats 201M-204M) was 0.01% (3×) and 0%. For the same compound, the “Mass Balance Recovery, Feces” value ([1]; 8-24 hrs, Mean, in % (unit assumed)) was 1.82, the “Mass Balance Recovery, Feces” value ([1]; 8-24 hrs, individual rats 201M-204M, in % (unit assumed)) was 1.34 and 2.04 and 2.40 and 1.49 and the “Mass Balance Recovery, Cage Rinse” value [1, 3] was 0.32. The “Mass Balance Recovery, Feces” value [1, 3] was 0.93, the “Mass Balance Recovery, Urine” value [1, 3] was 3.71 and the “Mass Balance Recovery, Feces” value ([1]; 24-48 hrs, individual rats 201M-204M) was 1.18 and 0.70 (2×) and 1.15. For the same compound, the “Mass Balance Recovery, Cage Rinse” value [1, 4] was 0.37 and 0.21 and 0.38 and 0.30, the “Mass Balance Recovery, Urine” value [1, 4] was 3.83 and 3.59 and 4.50 and 2.92 and the “Mass Balance Recovery, Cage Rinse” value [1, 5] was 0.18. For the same compound, the “Mass Balance Recovery, Feces” value [1, 5] was 0.42, the “Mass Balance Recovery, Urine” value [1, 5] was 1.58 and the Mass Balance Recovery, Urine ([1]; 48-72 hrs, individual rats 201M-204M) was 1.61% (2×) and 1.73% and 1.36%. For the same compound, the “Mass Balance Recovery, Cage Rinse” value [1, 6] was 0.13 and 0.11 and 0.20 and 0.28, the “Mass Balance Recovery, Feces” value [1, 6] was 0.46 and 0.41 and 0.54 and 0.26 and the “Mass Balance Recovery, Cage Rinse” value [1, 7] was 0.16. The “Mass Balance Recovery, Feces” value [1, 7] was 0.25, the “Mass Balance Recovery, Urine” value [1, 7] was 0.94 and the “Mass Balance Recovery, Cage Rinse” value [1, 8] was 0.12 and 0.11 and 0.24 and 0.15. For the same compound, the “Mass Balance Recovery, Feces” value [1, 8] was 0.31 and 0.26 and 0.27 and 0.15, the “Mass Balance Recovery, Urine” value [1, 8] was 0.97 and 1.03 and 0.96 and 0.79 and the “Mass Balance Recovery, Cage Wipe” value ([1]; Mean, in % (unit assumed)) was 0.10. The “Mass Balance Recovery, Carcass” value ([1]; Mean, in % (unit assumed)) was 2.71, the “Mass Balance Recovery, Cage Wipe” value [1, 9] was 0.08 and 0.06 and 0.20 and 0.04 and the “Mass Balance Recovery, Carcass” value [1, 9] was 2.74 and 2.80 and 2.60 and 2.68. For the same compound, the “Mass Balance Recovery, Feces Subtotal” value ([1]; Mean) was 3.44, the “Mass Balance Recovery, Cage Rinse Subtotal” value ([1]; Mean, in % (unit assumed)) was 2.39 and the “Mass Balance Recovery, Urine Subtotal” value ([1]; Mean, in % (unit assumed)) was 89.51. The “Mass Balance Recovery, Feces Subtotal” value ([1]; individual rats 201M-204M) was 3.29 and 3.45 and 4.37 and 2.64, the “Mass Balance Recovery, Cage Rinse Subtotal” value [1, 9] was 3.10 and 1.34 and 2.76 and 2.36 and the “Mass Balance Recovery, Urine Subtotal” value [1, 9] was 89.44 and 90.60 and 87.85 and 90.14. For the same compound, the “Mass Balance Recovery, Expired Air, Trap 1” value ([1]; 0-24 hrs, Mean) was 0.03, the “Mass Balance Recovery, Expired Air, Trap 1” value ([1]; 0-24 hrs, individual rats 301M-304M) was 0.03 (3×) and 0.02 and the “Mass Balance Recovery, Expired Air, Trap 1” value ([1]; 24-48 hrs, Mean) was 0.00. For the same compound, the “Mass Balance Recovery, Expired Air, Trap 1” value ([1]; 24-48 hrs, individual rats 301M-304M) was 0.00, the “Mass Balance Recovery, Expired Air, Trap 1” value ([1]; 48-72 hrs, Mean) was 0.01 and the “Mass Balance Recovery, Expired Air, Trap 1” value ([1]; 48-72 hrs, individual rats 301M-304M) was 0.00 (3×) and 0.05. The “Mass Balance Recovery, Expired Air, Trap 1 Subtotal” value ([1]; Mean) was 0.04, the “Mass Balance Recovery, Expired Air, Trap 1 Subtotal” value ([1]; individual rats 301M-304M) was 0.03 (2×) and 0.02 and 0.08 and the “Mass Balance Recovery, TOTAL” value ([1]; (201M/301M to 204M/304M), in % (unit assumed)) was 98.72 and 98.32 and 97.83 and 97.98. The “Mass Balance Recovery, TOTAL” value ([1]; Mean, in % (unit assumed)) was 98.21, the “time after administration by which the vast majority is excreted (urinary excretion kinetics)” value ([1]; rat, single IV dose, FIG. 6) was under 24 h and the total recovery ([1]; rat, single intravenous administration, Groups 2 and 3, FIG. 8) was 98.21±0.4%. For the same compound, the “Rat Blood PK Samples” value ([2]; 0.083 hrs, Mean) was 12494.00, the “Rat Blood PK Samples” value ([2]; 0.083 hrs, individual rats) was 12283.00 and 12343.00 and 12856.00 and the “Rat Blood PK Samples” value ([2]; 0.250 hrs, Mean) was 7636.87. The “Rat Blood PK Samples” value ([2]; 0.250 hrs, individual rats) was 6989.90 and 8433.50 and 7487.20, the “Rat Blood PK Samples” value ([2]; 0.5 hrs, Mean) was 4715.77 and the “Rat Blood PK Samples” value ([2]; 0.5 hrs, individual rats) was 4890.10 and 4595.70 and 4661.50. The “Rat Blood PK Samples” value ([2]; 1 hrs, Mean) was 1639.20, the “Rat Blood PK Samples” value ([2]; 1 hrs, individual rats) was 1277.80 and 2173.10 and 1466.70 and the “Rat Blood PK Samples” value ([2]; 2 hrs, Mean) was 497.04. For the same compound, the “Rat Blood PK Samples” value ([2]; 2 hrs, individual rats) was 513.73 and 503.14 and 474.26, the “Rat Blood PK Samples” value ([2]; 4 hrs, Mean) was 251.03 and the “Rat Blood PK Samples” value ([2]; 4 hrs, individual rats) was 244.30 and 269.75 and 239.03. For the same compound, the “Rat Blood PK Samples” value ([2]; 8 hrs, Mean) was 187.88, the “Rat Blood PK Samples” value ([2]; 8 hrs, individual rats) was 207.32 and 187.12 and 169.19 and the “Rat Blood PK Samples” value ([2]; 12 hrs, Mean) was 145.76. The “Rat Blood PK Samples” value ([2]; 12 hrs, individual rats) was 149.71 and 148.64 and 138.94, the “Rat Blood PK Samples” value ([2]; 24 hrs, Mean) was 99.45 and the “Rat Blood PK Samples” value ([2]; 24 hrs, individual rats) was 105.64 and 108.29 and 84.43. For the same compound, the “Rat Blood PK Samples” value ([2]; 48 hrs, Mean) was 50.56, the “Rat Blood PK Samples” value ([2]; 48 hrs, individual rats) was 49.28 and 52.03 and 50.38 and the “Rat Blood PK Samples” value ([2]; 72 hrs, Mean) was 24.63. For the same compound, the “Rat Blood PK Samples” value ([2]; 72 hrs, individual rats) was 23.54 and 33.09 and 17.27, the “Rat Blood PK Samples” value ([2]; 96 hrs, Mean) was 17.23 and the “Rat Blood PK Samples” value ([2]; 96 hrs, individual rats) was 17.39 and 16.69 and 17.60.
